Assay: Butyric acid release (odor) from lipase washed butter swatches by SPME-GC, Model E1 detergent
Description: The butyric acid release (odor) from the lipase washed swatches were measured by Solid Phase Micro Extraction Gas Chromatography (SPME-GC) using the following method.
40 mL of Model E1 detergent wash liquor was added to a 50 mL test tube. CS-10 butter swatches (CFT) were prepared from 5×5 cm swatches as round punch-outs with a 2-cm diameter. The butter swatches were prepared using methods similar to those described in Example 1. Lipase and methyl ricinoleate (Sigma-Aldrich R8750) were added to the tubes according to the table below, followed by the addition of 10 steel balls and 2 CS-10 swatches per tube. The tubes were continuously agitated at 40 rpm for 25 minutes at 20° C. The samples were then rinsed with cold water for 5 min and finally dried on filter paper for 16 hours.
The dried CS-10 swatches were transferred to Gas Chromatograph (GC) vials, which were then sealed. The samples were incubated at 30° C. for 24 hours, heated to 140° C. for 30 minutes, and stored at 20-25° C. for at least 4 hours before analysis. The analyses were performed on a Shimadzu Nexis GC-2030 equipped with a Carboxen PDMS SPME fiber (85 μm). Sampling from each GC vial was performed at 50° C. for 8 minutes with the SPME fiber in the head-space over the textile pieces as the sampled compounds were subsequently injected onto the column (injector temperature=250° C. Column flow=2 mL helium/minute. Column over temperature gradient: 0 minute=50° C., 2 minutes=50° C., 6 minutes 45 seconds=240° C.). Detection was performed using a Flame Ionization Detector (FID). Retention time for butyric acid was identified using an authentic standard. The area of each peak was measured and compared to the area of the reference peak (Lipase 2, no methyl ricinoleate). The data presents the peak sizes as the % peak size relative to the corresponding peak size from the Lipase 2 alone wash conditions. The experiment was performed twice. The Coefficient of Variation (CV) was 5%.

Row | Butyric acid peak size normalized to lipase alone (%) (methyl ricinoleate 1 mM, with Lipase 2, 25 minutes at 20° C.) | Butyric acid peak size normalized to lipase alone (%) (methyl ricinoleate 1 mM, without Lipase 2, 25 minutes at 20° C.) | Butyric acid peak size normalized to lipase alone (%) (methyl ricinoleate 5 mM, with Lipase 2, 25 minutes at 20° C.) | Butyric acid peak size normalized to lipase alone (%) (methyl ricinoleate 5 mM, without Lipase 2, 25 minutes at 20° C.) | Butyric acid peak size normalized to lipase alone (%) (Lipase 2 alone, no methyl ricinoleate (reference peak), 25 minutes at 20° C.) | Molecule
1 | 88% | 0% | 89% | 0% |  | CCCCCC[C@@H](O)C/C=C\CCCCCCCC(=O)OC [Methyl ricinoleate, methyl ricinoleate]
2 |  |  |  |  | 100% | Lipase 2: Thermomyces lanuginosus lipase (TLL) SEQ ID NO: 1 with substitutions E1C+D27R+G38A+F51V+D96E+K981+D111A+G163K+H198S+Y220F+T231R+N233C+D254S+P256T (Novozymes A/S) (protein, listed as Thermomyces lanuginosus, mat_peptide (1)..(269)) CVSQDLFNQFNLFAQYSAAAYCGKNNRALAGTNITCTANACPEVEKADATVLYSFEDSGVGDVTGFLALDNTNKLIVLSFRGSRSIENWIGNLNFELIEINDICSGCRGHAGFTSSWRSVADTLRQKVEDAVREHPDYRVVFTGHSLGGALATVAGADLRGNKYDIDVFSYGAPRVGNRAFAEFLTVQTGGTLYRITSTNDIVPRLPPREFGYSHSSPEFWIKSGTLVLVRRCDIVKIEGIDATGGNNQPNIPSITAHLWYFGLIGTCL
